According to PubChem BioAssay (NCI):
“And” between values parts separate entries of the source, which are not always exact repeats. Identical values can stand only once.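 48-hour exposure; five concentrations; linearly interpolated endpoints. GI50: concentration for 50% inhibition of growth. TGI is the concentration that stops growth completely.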

Columns and labels:
Assay in all cases: NCI-60 cell line screen, 48 h
A549 NSCLC = tested on: A549 NSCLC
HOP-92 NSCLC = tested on: HOP-92 NSCLC
HT29 colon = tested on: HT29 colon
K-562 leukemia = tested on: K-562 leukemia
NCI-H23 lung = tested on: NCI-H23 lung
PC-3 prostate = tested on: PC-3 prostate
RXF 393 renal = tested on: RXF 393 renal
SW-620 colon = tested on: SW-620 colon
MALME-3M melanoma = tested on: MALME-3M melanoma
SK-OV-3 ovarian = tested on: SK-OV-3 ovarian

SMILES	TGI (A549 NSCLC)	TGI (HOP-92 NSCLC)	TGI (HT29 colon)	TGI (K-562 leukemia)	TGI (NCI-H23 lung)	TGI (PC-3 prostate)	TGI (RXF 393 renal)	TGI (SW-620 colon)	TGI (MALME-3M melanoma)	TGI (SK-OV-3 ovarian)	GI50 (A549 NSCLC)	GI50 (HOP-92 NSCLC)	GI50 (HT29 colon)	GI50 (K-562 leukemia)	GI50 (NCI-H23 lung)
O=c1[nH]nc(Nc2ccccc2)c2nnn(Cc3ccccc3)c12	> 100 µM	> 100 µM	> 100 µM	> 100 µM	> 100 µM	> 100 µM	> 100 µM	> 100 µM							
CC(CCC(=O)O)(c1cc(Br)c(O)c(Br)c1)c1cc(Br)c(O)c(Br)c1	> 100 µM	> 100 µM	> 100 µM	> 100 µM	> 100 µM	> 100 µM	> 100 µM	> 100 µM	> 100 µM	> 100 µM					
CS(=O)(=O)c1ccc(C2=C(c3ccccc3)C(=O)OC2)cc1	> 100 µM	> 100 µM		> 100 µM	> 100 µM	> 100 µM	> 100 µM	> 100 µM	> 100 µM	> 100 µM					
COC(=O)c1ccc2c(c1)CC1(C2)Cc2ccc3c(c2C1)CCC3 (stereo not drawn)	> 100 µM	> 100 µM	55.4 µM	> 100 µM	> 100 µM	51.9 µM	> 100 µM	> 100 µM	60.5 µM	51.8 µM					
C=CCn1c(-c2ccc(N=NNc3ccc(-c4n[nH]c(=S)n4CC=C)cc3)cc2)n[nH]c1=S	> 100 µM	39.1 µM		7.71 µM	> 100 µM	> 100 µM	37.8 µM	> 100 µM	> 100 µM	25.3 µM					
CN(CCN(C)Cc1ccc(Cl)c(Cl)c1)CCN1CCCC1	> 100 µM	82.1 µM	> 72 µM	32.2 µM	> 100 µM	> 100 µM	99.9 µM	> 100 µM	35.8 µM	> 100 µM					
O=C(O)C(C1NCCS1)N1Cc2ccccc2C1 (stereo not drawn)	> 100 µM	> 100 µM	> 100 µM	> 100 µM	> 100 µM	> 100 µM	> 100 µM	> 100 µM	> 100 µM	> 100 µM					
O=C1OS2(OC(=O)c3cccc4cccc2c34)c2ccccc21 (stereo not drawn)	> 100 µM	> 100 µM	> 100 µM	> 100 µM	> 100 µM	> 100 µM	> 100 µM	> 100 µM	> 100 µM						
CC1CN=C(c2ccc3c(c2)Cc2cc(C4=NCC(C)N4)ccc2-3)N1 (stereo not drawn)	> 100 µM	> 100 µM	> 100 µM	> 100 µM	> 100 µM	> 100 µM	> 100 µM	> 100 µM	46 µM	> 100 µM					
O=c1[nH]c(=O)n(COCCO)cc1-c1ccccc1	> 100 µM	> 100 µM	> 100 µM	> 100 µM	> 100 µM	> 100 µM		> 100 µM	> 100 µM	> 100 µM					
CCOC(=O)Cn1c(=O)c2cc(C)cc3c(Cl)nc4c(OC)c(OC)cc1c4c32	> 100 µM	> 100 µM	> 100 µM	> 100 µM	> 100 µM	> 100 µM	> 100 µM	> 100 µM	> 100 µM	> 100 µM					
CCOC(=O)n1c2ccccc2c2c(O)c(OC)c3c(c21)C(=O)NC3=O	> 100 µM	> 100 µM	84.3 µM	> 100 µM	> 100 µM	> 100 µM		> 100 µM	95.4 µM	> 100 µM					
CC(C)=CCC[C@@H](C)c1c(O)c(O)c(C)c2nc3ccccc3nc12	9.15 µM	5.11 µM	17.5 µM	> 32.5 µM	8.61 µM	11.3 µM	4.45 µM	> 100 µM	7.53 µM	21.7 µM					
Cc1ccc(N=c2oc3c(ccc4ccccc43)nc2Nc2ccc(C)cc2)cc1	> 100 µM	> 100 µM	> 100 µM	> 100 µM	> 100 µM	> 100 µM	> 100 µM	> 100 µM	> 100 µM	> 100 µM					
COC(=O)[C@@]12CC3CN(Cc4c1[nH]c1ccccc41)C2CC3=O	> 100 µM	> 100 µM	> 100 µM	> 100 µM	> 100 µM	> 100 µM	> 100 µM	> 100 µM	> 100 µM	> 100 µM					
Cc1cc(C)c2c(=O)n(CC(O)CN3CCN(c4ncccn4)CC3)sc2n1 (stereo not drawn)	31.2 µM	> 100 µM	29.6 µM	> 100 µM	31.6 µM	32.8 µM	33.6 µM	60.7 µM	37.5 µM	32.8 µM					
CC(C)OCC(O)COc1cc(=O)oc2ccccc12 (stereo not drawn)	> 100 µM	> 100 µM	> 100 µM	> 100 µM	> 100 µM	> 100 µM		> 100 µM	> 100 µM	> 100 µM					
CCOC(=O)C(NC(=O)Nc1ccccc1)(Nc1cccc(Cl)c1)C(F)(F)F (stereo not drawn)	> 100 µM	94.6 µM	> 100 µM	> 100 µM	> 100 µM	> 100 µM	> 100 µM	> 100 µM	> 100 µM	> 100 µM					
C(=C/c1ccc2nc(-c3ccc(/C=C/C=N/NC4=NCCCN4)cc3)cn2c1)/C=N/NC1=NCCCN1	22 µM	> 100 µM		79.9 µM	> 100 µM	67.4 µM	48.6 µM			> 100 µM					
COC(=O)c1ccc2c(c1)CCN2C(=O)c1cc2c(cc1Br)OCO2	50 µM and > 100 µM	50 µM and 40.3 µM	50 µM and 12.1 µM	50 µM and > 100 µM	50 µM and 6.16 µM	5.52 µM and 20.6 µM	4.72 µM	50 µM and > 100 µM	50 µM	> 100 µM	3.27 µM	0.432 µM	0.507 µM	0.824 µM	0.746 µM
O=C(O)c1cc(/C=C/c2ccc(O)c(O)c2)ccc1O	> 100 µM	> 100 µM	> 100 µM	44.9 µM	> 100 µM	> 100 µM	> 100 µM		> 100 µM	> 100 µM					
C/C(=C/CC[C@](C)(OC1OC(CO)C(O)C(O)C1OC1OC(C)C(O)C(O)C1O)[C@H]1CC[C@]2(C)[C@@H]1CC[C@@H]1[C@@]3(C)CC[C@H](O)C(C)(C)[C@@H]3C[C@H](O)[C@]12C)CO (stereo partly drawn)	> 100 µM	> 100 µM	> 100 µM	> 100 µM	> 100 µM	> 100 µM	> 100 µM	> 100 µM	> 100 µM	> 100 µM					
